Test results: patent US20260256794A1, “Oral Dynamine Formulations and Methods Therefor” (Ortho-Nutra, LLC, priority 2023, published 2026)
Several values for one entry are separate records, joined by “and”; a condition that tells them apart may be missing. Equal entries are not always repeated.

Experiments:
Assay type in all cases: in vivo, human
subjects [1] = assay: VAS-Energy; design: VAS-Energy rating, Mean / VAS-Energy changes from baseline, Mean Difference ± SE / VAS-Energy Δ, Mean Difference ± SE / VAS-Energy area under the curve, Mean Difference ± SE / VAS-Energy area under the curve, Mean: scale not given here; details: for VAS-Energy Δ, effect size d / VAS-Energy Δ from 0 min, Mean / VAS-Energy Δ, Mean Difference ± SE: females; for VAS-Energy Δ, effect size d: vs placebo; for VAS-Energy Δ, Mean Difference ± SE: B vs A (placebo)
Procedure: (§1) The inventors have discovered various compositions and methods of improving various indices of neurological and neuroenergetic functions by administering 100 mg (once daily) dosages of DYNAMINE™ (dosage between 1.0 and 1.4 mg/kg) as described in the following:
(§2) All neuroenergetic tests as listed below were performed and data were collected after 0 and 4 days of assigned supplements (with acute effects also measured at day 4 over 180 minutes):
(§3) All VAS Measurement (Energy, Sustained Energy, Mental Stamina, Ability to Focus, Ability to Concentrate, Motivation to Accomplish Difficult Tasks, Drive, Vigor, Level of Positive Outlook, Mood, Feelings of Well-Being, Tolerate Stress); Day 0: Two tests were completed. The average of both scores was computed and this value was used in all statistical analysis. Day 4 (0 minutes after ingesting dose #4): Two tests were completed. The average of both scores was computed and this value was used in all statistical analysis. Day 4 (60, 120, and 180 minutes after ingesting dose #4): One test was completed at each time point.
(§4) Neuroenergic parameters are inherently subjective, nevertheless significant in human behavior and well-being. To allow for a standardization among different subjects, the following experiments were performed using a visual analog scale using anchor statements (lowest possible/highest possible) in which subjects were asked to rate their subjective experience with respect to the specific neuroenergic parameters tested.
VAS-Energy: In this subjective test, subjects were asked to rate their personal level of energy on a VAS scale using the prompt of “My level of energy right now is . . . ” (with rating lowest possible to highest possible)”. Results were collected as noted above and Table 2 provides exemplary results for Day 0 versus Day 4 ratings, whereas Table 3 provides exemplary acute results measured at Day 4 over a duration of 180 minutes.

subjects [2] = assay: Trail Making Test; details: for Trail Making Test score, Mean: lower = faster
Procedure: as §1, §2
Trail Making Test: Day 0: Two blocks of three tests were completed. Each block of three tests was separated by 10 minutes. The median of each block was taken and then those two scores were averaged. This value was used in all statistical analysis. Day 4: Three tests were completed at four time points: after 0, 60, 120, and 180 minutes of taking dose #4. The median of the three tests at each time point was used in all statistical analysis.
The trail making test has at least two test conditions. In Condition A, a subject is asked to draw lines to connect circled numbers in a numerical sequence (e.g., 1-2-3, etc.) as rapidly in possible. In Condition B the subject is asked to draw lines to connect circled numbers and letters in an alternating numeric and alphabetic sequence (i.e., 1-A-2-B, etc.) as rapidly as possible. Although trail making tests are conceptually very simple, they are thought to reflect a wide variety of cognitive processes including attention, visual search and scanning, sequencing and shifting, psychomotor speed, abstraction, flexibility, ability to execute and modify a plan of action, and ability to maintain two trains of thought simultaneously.

subjects [3] = assay: VAS-Ability to tolerate stress; design: VAS-Ability to tolerate stress rating, Mean / VAS-Ability to tolerate stress changes from baseline, Mean Difference ± SE / VAS-Ability to tolerate stress area under the curve, Mean Difference ± SE / VAS-Ability to tolerate stress area under the curve, Mean: scale not given here
Procedure: as §1, §2, §3, §4
VAS-Ability to tolerate stress: In this subjective test, subjects were asked to rate their personal level of energy on a VAS scale using the prompt of “My ability to tolerate stress right now is . . . ” (with rating lowest possible to highest possible)”. Results were collected as noted above and Table 37 provides exemplary results for Day 0 versus Day 4 ratings, whereas Table 38 provides exemplary acute results measured at Day 4 over a duration of 180 minutes.

subjects [4] = assay: VAS-Well-Being; design: VAS-Well-Being rating, Mean / VAS-Well-Being changes from baseline, Mean Difference ± SE / VAS-Well-Being area under the curve, Mean Difference ± SE / VAS-Well-Being area under the curve, Mean: scale not given here
Procedure: as §1, §2, §3, §4
VAS-Well-Being: In this subjective test, subjects were asked to rate their personal level of energy on a VAS scale using the prompt of “My feeling of well-being right now is . . . ” (with rating lowest possible to highest possible)”. Results were collected as noted above and Table 34 provides exemplary results for Day 0 versus Day 4 ratings, whereas Table 35 provides exemplary acute results measured at Day 4 over a duration of 180 minutes.

[5] = 100 mg once daily, Day 4, 0-180 min
[6] = 100 mg once daily, Day 4, 0-180 min, vs Group A (placebo)
[7] = 100 mg once daily, Day 4, 0 min after dose #4
[8] = 100 mg once daily, Day 4, 60 min-0 min, vs Group A (placebo)
[9] = 100 mg once daily, Day 4, 60 min after dose #4
[10] = 100 mg once daily, Day 4, 120 min-0 min, vs Group A (placebo)
[11] = 100 mg once daily, Day 4, 120 min after dose #4
[12] = 100 mg once daily, Day 4, 180 min-0 min, vs Group A (placebo)
[13] = 100 mg once daily, Day 4, 180 min after dose #4
[14] = 100 mg once daily, Day 4, Δ @ 60 min
[15] = 100 mg once daily, Day 4, Δ @ 120 min
[16] = 100 mg once daily, Day 4, Δ @ 180 min

## COc1nc2c(c(=O)n1C)n(C)c(=O)n2C [methylliberine, 2-methoxy-1,7,9-trimethylpurine-6,8-dione]
Subjects [1]; [5]
  VAS-Energy area under the curve, Mean: 1115
Subjects [1]; [6]
  VAS-Energy area under the curve, Mean Difference ± SE: 49.6 ± 36.3
  VAS-Energy area under the curve, effect size d: 0.15
Subjects [1]; [7]
  VAS-Energy rating, Mean: 5.8
Subjects [1]; [8]
  VAS-Energy changes from baseline, Mean Difference ± SE: 0.24 ± 0.22
  VAS-Energy changes from baseline, effect size d: 0.28
Subjects [1]; [9]
  VAS-Energy rating, Mean: 6.2
Subjects [1]; [10]
  VAS-Energy changes from baseline, Mean Difference ± SE: −0.14 ± 0.27
  VAS-Energy changes from baseline, effect size d: −0.14
Subjects [1]; [11]
  VAS-Energy rating, Mean: 6.2
Subjects [1]; [12]
  VAS-Energy changes from baseline, Mean Difference ± SE: 0.28 ± 1.24
  VAS-Energy changes from baseline, effect size d: 0.28
Subjects [1]; [13]
  VAS-Energy rating, Mean: 6.5
Subjects [1]; Day 0 (before supplementation)
  VAS-Energy rating, Mean: 5.5
Subjects [1]; 100 mg once daily, Day 4, 60 min
  VAS-Energy Δ, effect size d: 0.81
Subjects [1]; 100 mg once daily, Day 4, 120 min
  VAS-Energy Δ, effect size d: 0.69
Subjects [1]; 100 mg once daily, Day 4, 120 min, listed as B
  VAS-Energy Δ, effect size d: −0.03
Subjects [1]; 100 mg once daily, Day 4, 180 min
  VAS-Energy Δ, effect size d: 0.69
Subjects [1]; [14]
  VAS-Energy Δ from 0 min, Mean: 0.66
  VAS-Energy Δ, Mean Difference ± SE: 0.72 ± 0.23
Subjects [1]; [15]
  VAS-Energy Δ from 0 min, Mean: 0.42
  VAS-Energy Δ, Mean Difference ± SE: −0.03 ± 0.38
Subjects [1]; [16]
  VAS-Energy Δ from 0 min, Mean: 1.08
  VAS-Energy Δ, Mean Difference ± SE: 0.73 ± 1.11
Subjects [2]; [7]
  Trail Making Test score, Mean: 21.6
Subjects [2]; [9]
  Trail Making Test score, Mean: 20.4
Subjects [2]; [11]
  Trail Making Test score, Mean: 20.2
Subjects [2]; [13]
  Trail Making Test score, Mean: 20.3
Subjects [2]; 4-days daily supplementation, Day 4 vs Day 0, p<0.001
  improvement in TMT performance: +11.1%
Subjects [2]; Day 0 (before supplementation)
  Trail Making Test score, Mean: 24.3
Subjects [3]; [5]
  VAS-Ability to tolerate stress area under the curve, Mean: 1075
Subjects [3]; [6]
  VAS-Ability to tolerate stress area under the curve, Mean Difference ± SE: 45.5 ± 45.6
  VAS-Ability to tolerate stress area under the curve, effect size d: −0.13
Subjects [3]; [7]
  VAS-Ability to tolerate stress rating, Mean: 5.7
Subjects [3]; [8]
  VAS-Ability to tolerate stress changes from baseline, Mean Difference ± SE: 0.17 ± 0.18
  VAS-Ability to tolerate stress changes from baseline, effect size d: 0.21
Subjects [3]; [9]
  VAS-Ability to tolerate stress rating, Mean: 6.2
Subjects [3]; [10]
  VAS-Ability to tolerate stress changes from baseline, Mean Difference ± SE: 0.28 ± 1.42
  VAS-Ability to tolerate stress changes from baseline, effect size d: 0.27
Subjects [3]; [11]
  VAS-Ability to tolerate stress rating, Mean: 6.4
Subjects [3]; [12]
  VAS-Ability to tolerate stress changes from baseline, Mean Difference ± SE: 0.67 ± 0.30
  VAS-Ability to tolerate stress changes from baseline, effect size d: 0.52 and 0.54
Subjects [3]; [13]
  VAS-Ability to tolerate stress rating, Mean: 6.4
Subjects [3]; Day 0 (before supplementation)
  VAS-Ability to tolerate stress rating, Mean: 6.1
Subjects [4]; [5]
  VAS-Well-Being area under the curve, Mean: 1239
Subjects [4]; [6]
  VAS-Well-Being area under the curve, Mean Difference ± SE: 14.9 ± 43.0
  VAS-Well-Being area under the curve, effect size d: −0.05
Subjects [4]; [7]
  VAS-Well-Being rating, Mean: 6.4
Subjects [4]; [8]
  VAS-Well-Being changes from baseline, Mean Difference ± SE: 0.16 ± 0.16
  VAS-Well-Being changes from baseline, effect size d: 0.22
Subjects [4]; [9]
  VAS-Well-Being rating, Mean: 6.8
Subjects [4]; [10]
  VAS-Well-Being changes from baseline, Mean Difference ± SE: 0.46 ± 0.29
  VAS-Well-Being changes from baseline, effect size d: 0.45
Subjects [4]; [11]
  VAS-Well-Being rating, Mean: 7.3
Subjects [4]; [12]
  VAS-Well-Being changes from baseline, Mean Difference ± SE: 0.54 ± 1.34
  VAS-Well-Being changes from baseline, effect size d: 0.52
Subjects [4]; [13]
  VAS-Well-Being rating, Mean: 7.2
Subjects [4]; Day 0 (before supplementation)
  VAS-Well-Being rating, Mean: 6.8
